Legend:
[1] = tested on: Aedes aegypti (Yellow fever mosquito); experiment: whole plant or invertebrate; settings: Aedes aegypti
Procedure: […] Once the deposits were dry, five non-blood fed adult female Aedes aegypti (between two to five days old) were added to each well, and sustained with a 10% sucrose solution in a cotton wool plug. Assessment of the knockdown after 1 hour, and mortality after 48 hours was carried out.
(§1) In case of multiple tests, the mean value is reported.

[2] = tested on: Anopheles stephensi (Indian malaria mosquito); experiment: whole plant or invertebrate; settings: Anopheles stephensi
Procedure: […] Once the deposits were dry, five non-blood fed adult female Anopheles stephensi (between two to five days old) were added to each well, and sustained with a 10% sucrose solution in a cotton wool plug. Assessment of the knockdown after 1 hour, and mortality after 48 hours was carried out.
as §1

[3] = tested on: Aedes aegypti; experiment: whole plant or invertebrate; settings: Aedes aegypti, 48 h
Method in brief: (§2)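 Non-blood-fed adult females (2–5 days old), ten per well, were placed on dried ethanol deposits of the test compound at a defined concentration and fed 10% sucrose. Mortality was scored at 48 hours as the mean of two replicates.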

[4] = tested on: Anopheles stephensi; experiment: whole plant or invertebrate; settings: Anopheles stephensi, 48 h
Method in brief: as §2

[5] = tested on: Ae. Aegypti New Orleans; experiment: Example B4: cross resistance study, 6-well plate; assay type: in vivo
Procedure: (§3) In each study, a set of plates were infested with a known insecticide susceptible strain of mosquitoes from the same genera as the resistant strains.
(§4) Assessment of the knockdown after 60 minutes and mortality after 24 hours was carried out. Each treatment was replicated a minimum of four times, with the mean knockdown or mortality recorded.
(§5) A comparison of the knockdown and mortality of the resistant strain of mosquitoes was made to that of the susceptible to identify evidence of cross resistance.

[6] = tested on: Ae. aegypti Caymon; experiment: Example B4: cross resistance study, 6-well plate; assay type: in vivo
Procedure: as §3, §4, §5

[7] = tested on: An. Arabiensis Moz sus; experiment: Example B4: cross resistance study, 6-well plate; assay type: in vivo
Procedure: as §3, §4, §5

[8] = tested on: An. Arabiensis Ndjamina; experiment: Example B4: cross resistance study, 6-well plate; assay type: in vivo
Procedure: as §3, §4, §5

[9] = tested on: An. Gambiae Kisumu rdl; experiment: Example B4: cross resistance study, 6-well plate; assay type: in vivo
Procedure: as §3, §4, §5

[10] = tested on: An. Gambiae Kisumu sus; experiment: Example B4: cross resistance study, 6-well plate; assay type: in vivo
Procedure: as §3, §4, §5

[11] = tested on: An. Gambiae Tiassalé; experiment: Example B4: cross resistance study, 6-well plate; assay type: in vivo
Procedure: as §3, §4, §5

[12] = tested on: An. stephensi; experiment: Example B4: cross resistance study, 6-well plate; assay type: in vivo
Procedure: as §3, §4, §5

[13] = tested on: An. Gambiae Kisumu sus; experiment: Example B5: bottle based cross resistance study (CDC bottle assay); assay type: in vivo
Procedure: (§6) Based on the “CDC bottle assay” (described at http://www.cdc.gov/malaria/resources/pdf/fsp/ir_manual/ir_cdc_bioassay_en.pdf) 1 ml of ethanol containing a test compound at a defined concentration was added to a 250 ml glass bottle and the bottles were placed on a rolling table to coat the inner surfaces as the solvent evaporated. Once dry, twenty five non-blood fed adult female mosquitoes of the appropriate species and strains (each three day old) were aspirated from the stock culture and gently blown into the exposure bottles. The lid of the bottle was replaced and the bottle placed upright out of direct sun light under standard culture conditions, nominally 28C and 60-80% relative humidity.
(§7) A stopwatch was started, and the assessment of the knock-down were made after 15 minutes and 60 minutes. A mosquito was said to be knocked down if it was unable to stand, following the CDC definition. The bottles were replaced in an upright position when not being assessed.
(§8) After one hour the mosquitoes were carefully removed from the bottle with an aspirator and placed in a recovery cup. The mosquitoes were supplied with a 10% sucrose solution on a cotton wool bung, and stored under culture conditions. Assessments of the mortality were made after 24 hours.
(§9) Each treatment was replicated a minimum of four times, with the mean knockdown or mortality recorded. In each study, a set of bottles was infested with a known insecticide susceptible strain of mosquitoes from the same genera as the resistant strains.

[14] = tested on: An. Gambiae Tiassalé; experiment: as above; assay type: in vivo
Procedure: as §6, §7, §8, §9

[15] = tested on: An. stephensi; experiment: as above; assay type: in vivo
Procedure: as §6, §7, §8, §9

[16] = tested on: Aedes aegypti; experiment: Example B7: evaluation of insecticide impregnated polymer surfaces; assay type: in vivo; settings: AI content 2 wt %, polymer 4 to 6 weeks old, after one hour
Text: (§10) Preparation of polymeric sheets: Certain methoxyacrylate were Impregnated into three polymers: LDPE (low density polyethylene), HDPE (high density polyethylene) and PP (polypropylene) in different concentrations by mixing the respective polymer with a compound at high temperatures and the resultant polymeric material were then mould into thin discs or plaques.
(§11) Twenty four hours prior to the relevant assessment intervals, three to five day old non-blood fed adult mosquitoes were taken from the culture and lightly anaesthetised with carbon dioxide. Ten females were selected and placed in a 250 ml plastic cup, retained with a net lid, provided with a 10% sucrose solution soaked in a cotton wool bung and held under culturing environmental conditions.
(§12) After twenty four hours, impregnated polymer sheets (measuring about 150 mm in diameter and about 0.1 mm in thickness) were removed from storage and wrapped around the glazed side of an 11 cm ceramic tile and held in place with an elastic band. A cup of the pre-selected mosquitoes were again lightly anaesthetised with carbon dioxide and transferred from the holding cup to the base of a 9 cm plastic Petri dish. The relevant impregnated polymer sheet was placed over the Petri dish and held in place with an elastic band. Once the mosquitoes had recovered from the anaesthetic, ca. 1 minute, the impregnated polymer sheet was placed on a holding rack, such that treated side was at an angle of […] to the horizontal.
(§13) After one hour an assessment of mosquito knockdown was made. A mosquito was said to be knocked down if it was unable to right itself once it had fallen over. The mosquitoes were lightly anaesthetised again, and removed from the Petri dish exposure chamber and returned to the holding cups. The mosquitoes were supplied with a 10% sucrose solution soaked in a cotton wool bung and held under culturing environmental conditions. An assessment of mortality was made 24 hours after exposure. A mosquito was said to be dead if it is unable to right itself once it had fallen over.

[17] = tested on: Anopheles stephensi; experiment: as above; assay type: in vivo; settings: AI content 2 wt %, after one hour
Text: as §10, §11, §12, §13

CCC(=N\OC)/C(C)=N/OCc1ccccc1/C(=C\OC)C(=O)OC [Compound 4, Methyl(E)-3-methoxy-2-[2-[[(E)-[(2E)-2-methoxyimino-1-methyl-butylidene]amino]-oxymethyl]phenyl]prop-2-enoate] was tested, and the pest or weed control at 20 ppm ([1]; 1 h, read-out: Knockdown) was 100%, the mortality at 20 ppm ([1]; 48 h) was 100% and the pest or weed control at 20 ppm ([2]; 1 h, read-out: Knockdown) was 80%. It also gave a mortality at 20 ppm ([2]; 48 h) of 100%, a mortality at 5 ppm [3] of 78% and a mortality at 5 ppm [4] of 98%. The Knockdown ([5]; 2.00 ppm, after 60 minutes, New Orleans) was 75%, the mortality at 2 ppm ([5]; Aedes aegypti, 24 h) was 100% and the Knockdown ([6]; 2.00 ppm, after 60 minutes, Caymon) was 45%. The mortality at 2 ppm ([6]; Aedes aegypti, 24 h) was 90%, the Knockdown ([7]; 2.00 ppm, after 60 minutes, Moz sus) was 0% and the mortality at 2 ppm ([7]; Anopheles arabiensis, 24 h) was 95%. The Knockdown ([8]; 2.00 ppm, after 60 minutes, Ndjamina) was 100%, the mortality at 2 ppm ([8]; Anopheles arabiensis, 24 h) was 100% and the Knockdown ([9]; 2.00 ppm, after 60 minutes, Kisumu rdl) was 30%. The mortality at 2 ppm ([9]; Anopheles gambiae, 24 h) was 100%, the Knockdown ([10]; 2.00 ppm, after 60 minutes, Kisumu sus) was 67% and the mortality at 2 ppm ([10]; Anopheles gambiae, 24 h) was 95%. The Knockdown ([11]; 2.00 ppm, after 60 minutes, Tiassalé) was 70%, the mortality at 2 ppm ([11]; Anopheles gambiae, 24 h) was 100% and the Knockdown ([12]; 2.00 ppm, after 60 minutes, An. stephensi) was 95%. For the same compound, the mortality at 2 ppm ([12]; Anopheles stephensi, 24 h) was 100%, the “Knockdown (%) at 15 mins” value ([13]; 20 ppm, bottle, Kisumu sus) was 48% and the “Knockdown (%) at 60 mins” value ([13]; 20 ppm, bottle, Kisumu sus) was 100%. The mortality at 20 ppm ([13]; Anopheles gambiae) was 100%, the “Knockdown (%) at 15 mins” value ([14]; 20 ppm, bottle, Tiassalé) was 17% and the “Knockdown (%) at 60 mins” value ([14]; 20 ppm, bottle, Tiassalé) was 96%. The mortality at 20 ppm ([14]; Anopheles gambiae) was 77%, the “Knockdown (%) at 15 mins” value ([15]; 20 ppm, bottle, An. stephensi) was 10% and the “Knockdown (%) at 60 mins” value ([15]; 20 ppm, bottle, An. stephensi) was 100%. It also gave a mortality at 20 ppm ([15]; Anopheles stephensi) of 80%, a knock-down ([16]; HDPE) of 53% and a knock-down ([16]; LDPE) of 63%. It also gave a knock-down ([16]; PP) of 63%, a knock-down ([17]; HDPE, polymer 4 to 6 weeks old) of 93% and a knock-down ([17]; HDPE, polymer 6 to 8 weeks old) of 77%. For the same compound, the knock-down ([17]; LDPE, polymer 4 to 6 weeks old) was 87%, the knock-down ([17]; LDPE, polymer 6 to 8 weeks old) was 70% and the knock-down ([17]; PP, polymer 4 to 6 weeks old) was 100%. For the same compound, the knock-down ([17]; PP, polymer 6 to 8 weeks old) was 90%.

Source: patent publication US11882828B2, “Mosquito vector control compositions, methods and products utilizing same” (priority 2015, dated 2024)
